Converted amounts (≈) assume the structure as drawn. Where a name gives a salt, the structure may show the parent alone.
How the values were obtained:
[1] = test system: patients with mild cognitive impairment or Alzheimer's disease; details: cited from earlier work
[2] = test system: mouse model of Alzheimer's disease; details: cited from earlier work
[3] = versus thiamine hydrochloride or thiamine nitrate; cited from earlier work
[4] = Stability test under harsh conditions (60° C.±2° C.), HPLC analysis; format: physicochemical; details: for purity (HPLC), Day 3 / purity (HPLC), Day 7 / purity (HPLC), Day 14 / purity (HPLC), Day 21 / purity (HPLC), Initial: harsh conditions 60° C.±2° C.; for purity change: stability test for 21 days under harsh conditions
Protocol: A stability test of a pharmaceutical means to confirm the stability of constant quality over time under certain conditions to set the storage method and shelf life of the pharmaceutical. Therefore, an expiration date of a product is set by setting appropriate specifications and evaluating conformance to the specifications by evaluating significant changes based on a prescribed analytical method.
Specifically, a stability test was conducted under harsh conditions (60° C.±2° C.) according to the ICH guidelines, and an analysis was performed by high-performance liquid chromatography (HPLC) analysis.

[5] = Solubility test (saturated solution, HPLC); format: physicochemical
Protocol: After diluting a reference solution with 50% acetonitrile, a calibration curve (range: […]) was prepared by USP compendial HPLC analysis, and the concentration of the saturated solution was obtained from a first-order function of the prepared calibration curve.

[6] = test system: p-ERK, p-AKT, and NR2B in primary cultured hippocampal neurons; assay: Immunoblot test: activation of neuroplastic factors in hippocampal cells; format: cell-based, SD rats (Sprague-Dawley rats); details: 1 or 3 μg/ml, 10 minutes, FIG. 5
Protocol: All cells used in the experiment were primary cultured hippocampal neurons. Hippocampal neurons were isolated from embryos of SD rats (Sprague-Dawley rats, Samtaco Korea) on gestation Day 18 and Day 19. A hippocampal nerve tissue of fetal rats was physically separated by using a dissecting microscope and then placed in HBSS (Hank's Balanced Salt Solution) supplemented with 0.25% trypsin and treated at 37° C. for 10 minutes. After washing the hippocampal nerve tissue with HBSS, single cells were isolated by carefully pipetting with a pipette. The isolated cells were cultured by filling a 60 mm cell culture dish, coated with Poly-L-lysine (0.5 mg/ml) in advance, with Neurobasal/B27 medium (0.5 mM L-glutamine, 25 μM glutamate, 25 μM 2-mercaptoethanol, 100 U/mL penicillin, 100 μg/ml streptomycin) at 5% CO2 and 37° C. The medium was exchanged on cell culture Day 4 and Day 11, and the cells were used in the experiment on culture Day 14. To confirm p-ERK, p-AKT, and NR2B in cells, the medium of primary cultured hippocampal neurons cultured for 14 days was changed to a B-27-free medium at least 1 hour before drug treatment. […] The disrupted cell solution was quantified according to a protein quantification method, and then for protein analysis (immunoblotting), the protein was subjected to electrophoresis on 8% and 10% SDS-polyacrylamide gel. The membrane was subjected to a reaction at room temperature for 1 hour by adding 5% skim milk. A primary antibody was treated with tris buffered saline at a ratio of 1:1000, subjected to a reaction at 4° C. for 24 hours, and then washed three times with TBST (25 mM Tris-Hcl, 140 mM NaCl, 0.1% Tween 20, pH 7.5). After that, a secondary antibody was subjected to a reaction with Anti-Rabbit or Anti-Mouse antibody (HRP-linked) in 3% skim milk at a ratio of 1:5000 for 1 hour. The coupled antibody complex was confirmed by using West Femto Maximum Sensitivity Substrate (Thermo), and the results are shown in FIG. 5.

purity (HPLC), Day 3 [4]	purity (HPLC), Day 7 [4]	purity (HPLC), Day 14 [4]	purity (HPLC), Day 21 [4]	purity (HPLC), Initial [4]	purity change [4]	Solubility ([5]; Purified water)	Solubility ([5]; pH 1.2)	Solubility ([5]; pH 4.0)	Solubility ([5]; pH 6.8)	solubility at 1 h ([5]; purified water and solutions at pH 1.2, pH 4.0 and pH 6.8, aqueous buffer, thermodynamic from solid, purified water and solutions at pH 1.2, pH 4.0 and pH 6.8, read-out: solubility (range over all media))	solubility (in words) ([5]; purified water and all solutions at pH 1.2, pH 4.0, and pH 6.8)	SMILES	rate of functional decline [1]	level of phosphorylated tau [2]	number of amyloid plaques [2]	spatial memory [2]	bioavailability higher than thiamine hydrochloride or thiamine nitrate [3]	level of NR2B [6]	level of phosphorylated Akt [6]	level of phosphorylated ERK [6]
99.1	98.6	97.5	97.0	99.5	2.5%	3000 µg/mL (≈ 6.43 mM)	5600 µg/mL (≈ 12 mM)	3100 µg/mL (≈ 6.65 mM)	6600 µg/mL (≈ 14.1 mM)	3000 to 6600 µg/mL (≈ 6.43 to 14.1 mM)	–	C/C(=C(\CCOP(=O)(O)O)SC(=O)c1ccccc1)N(C=O)Cc1cnc(C)nc1N [Comparative Example, benfotiamine]	effective and safe in slowing down the rate of functional decline	reduces	reduces	improves spatial memory in a dose-dependent manner	about 3.6 times	–	–	–
99.2	99.1	99.0	98.2	99.3	1.1%	652100 µg/mL	898400 µg/mL	690200 µg/mL	820000 µg/mL	–	very high solubility	C/C(=C(\CCOP(=O)(O)O)SC(=O)c1ccccc1)N(C=O)Cc1cnc(C)nc1N [Example 1, benfotiamine choline salt]	–	–	–	–	–	effectively increased	effectively increased	effectively increased

Source: patent US20260062432A1 (REXPHARMTECH CO., LTD, priority 2022, published 2026)
